Converted amounts (≈) assume the structure as drawn.
Tests used:
Human respirovirus 3 [1] = assay: Antiviral activity against Human parainfluenza virus 3 infected African green monkey Vero cells assessed as concentration required to cause minimum inhibition of virus-induced cytopathic effect; format: functional
Human respirovirus 3 [2] = assay: Antiviral activity against Human parainfluenza virus 3 infected African green monkey Vero cells assessed as concentration required to cause maximum inhibition of virus-induced cytopathic effect; format: functional
[3] = Cytotoxicity against Chlorocebus aethiops (African green monkey) Vero cells assessed as maximum non-toxic concentration; format: cell-based; conditions: chlorocebus sabaeus, read-out: MNCC
Human alphaherpesvirus 1 [4] = assay: Antiviral activity against Human herpesvirus 1 infected bovine MDBK cells assessed as concentration required to cause minimum inhibition of virus-induced cytopathic effect; format: functional
Human alphaherpesvirus 1 [5] = assay: Antiviral activity against Human herpesvirus 1 infected bovine MDBK cells assessed as concentration required to cause maximum inhibition of virus-induced cytopathic effect; format: functional
[6] = Cytotoxicity against Bos taurus (bovine) MDBK cells assessed as maximum non-toxic concentration; format: cell-based; conditions: cattle, read-out: MNCC
Candida albicans = assay: Antifungal activity against Candida albicans ATCC 10231 by microdilution method; format: functional
Candida parapsilosis = assay: Antifungal activity against Candida parapsilosis ATCC 22019 by microdilution method; format: functional; conditions: Lodderomyces parapsilosis
Bacillus subtilis [7] = assay: Antibacterial activity against ceftriaxon-resistant Bacillus subtilis by microdilution method; format: functional
Enterococcus faecalis [8] = assay: Antibacterial activity against cephalosporins and beta-lactam-resistant Enterococcus faecalis by microdilution method; format: functional
Bacillus subtilis [9] = assay: Antibacterial activity against Bacillus subtilis ATCC 6633 by microdilution method; format: functional
Enterococcus faecalis [10] = assay: Antibacterial activity against Enterococcus faecalis ATCC 29212 by microdilution method; format: functional
Staphylococcus aureus [11] = assay: Antibacterial activity against oxacillin, gentamicin, aztreonam, trimethoprim-sulfamethoxazole-resistant Staphylococcus aureus by microdilution method; format: functional
Staphylococcus aureus [12] = assay: Antibacterial activity against Staphylococcus aureus ATCC 25923 by microdilution method; format: functional
Acinetobacter baumannii [13] = assay: Antibacterial activity against trimethoprim-sulfamethoxazole, cefepime-resistant Acinetobacter baumannii by microdilution method; format: functional
Acinetobacter baumannii [14] = assay: Antibacterial activity against Acinetobacter baumannii RSKK 02026 by microdilution method; format: functional
Klebsiella pneumoniae [15] = assay: Antibacterial activity against ESbetaL positive trimethoprim-sulfamethoxazole, amoxicillin clavulonat, cefriaxon, cephepim, aztreonam-resistant Klebsiella pneumoniae by microdilution method; format: functional
Klebsiella pneumoniae [16] = assay: Antibacterial activity against Klebsiella pneumoniae RSKK 574 by microdilution method; format: functional
Proteus mirabilis [17] = assay: Antibacterial activity against Proteus mirabilis ATCC 7002 by microdilution method; format: functional
Proteus mirabilis [18] = assay: Antibacterial activity against ESbetaL positive rimethoprim-sulfamethoxazole, cefepime, tazobactam-resistant Proteus mirabilis by microdilution method; format: functional
Pseudomonas aeruginosa [19] = assay: Antibacterial activity against trimethoprim-sulfamethoxazole, tazobactam-resistant Pseudomonas aeruginosa by microdilution method; format: functional
Pseudomonas aeruginosa [20] = assay: Antibacterial activity against Pseudomonas aeruginosa ATCC 10145 by microdilution method; format: functional
Escherichia coli [21] = assay: Antibacterial activity against ESbetaL positive trimethoprim-sulfamethoxazole, cefepime, tazobactam-resistant Escherichia coli isolate by microdilution method; format: functional
Escherichia coli [22] = assay: Antibacterial activity against Escherichia coli ATCC 35218 by microdilution method; format: functional

| SMILES | Activity (Human respirovirus 3 [1]) [µg/mL] | Activity (Human respirovirus 3 [2]) [µg/mL] | MNTC [3] [µg/mL] | Activity (Human alphaherpesvirus 1 [4]) [µg/mL] | Activity (Human alphaherpesvirus 1 [5]) [µg/mL] | MNTC [6] [µg/mL] | MIC (Candida albicans) [mg/L] | MIC (Candida parapsilosis) [mg/L] | MIC (Bacillus subtilis [7]) [mg/L] | MIC (Enterococcus faecalis [8]) [mg/L] | MIC (Bacillus subtilis [9]) [mg/L] | MIC (Enterococcus faecalis [10]) [mg/L] | MIC (Staphylococcus aureus [11]) [mg/L] | MIC (Staphylococcus aureus [12]) [mg/L] | MIC (Acinetobacter baumannii [13]) [mg/L] | MIC (Acinetobacter baumannii [14]) [mg/L] | MIC (Klebsiella pneumoniae [15]) [mg/L] | MIC (Klebsiella pneumoniae [16]) [mg/L] | MIC (Proteus mirabilis [17]) [mg/L] | MIC (Proteus mirabilis [18]) [mg/L] | further results |
| --- | --- | --- | --- | --- | --- | --- | --- | --- | --- | --- | --- | --- | --- | --- | --- | --- | --- | --- | --- | --- | --- |
| O=c1cc(CCl)oc(CN2CCN(c3ccc(Cl)c(Cl)c3)CC2)c1O | 0.05 | 0.4 | 0.4 | 0.1 | 0.4 | 1.6 | 16 (≈ 39.6 µM) | 16 (≈ 39.6 µM) | 64 (≈ 159 µM) | 64 (≈ 159 µM) | 16 (≈ 39.6 µM) | 8 (≈ 19.8 µM) | 64 (≈ 159 µM) | 8 (≈ 19.8 µM) | 32 (≈ 79.3 µM) | 64 (≈ 159 µM) | 64 (≈ 159 µM) | 32 (≈ 79.3 µM) | 32 (≈ 79.3 µM) | 64 | MIC (Pseudomonas aeruginosa [19]): 64 mg/L; MIC (Pseudomonas aeruginosa [20]): 16 mg/L (≈ 39.6 µM); MIC (Escherichia coli [21]): 64 mg/L; MIC (Escherichia coli [22]): 64 mg/L (≈ 159 µM) |
| O=c1cc(CCl)oc(CN2CCN(c3ccccc3Cl)CC2)c1O | 0.2 | 0.4 | 0.4 | 0.1 | 0.4 | 1.6 | 16 (≈ 43.3 µM) | 16 (≈ 43.3 µM) | > 128 | > 128 | 16 (≈ 43.3 µM) | 8 (≈ 21.7 µM) | > 128 | 8 (≈ 21.7 µM) | > 128 | 64 (≈ 173 µM) | > 128 | 64 (≈ 173 µM) | 64 (≈ 173 µM) | > 128 | MIC (Pseudomonas aeruginosa [19]): > 128 mg/L; MIC (Pseudomonas aeruginosa [20]): 64 mg/L (≈ 173 µM); MIC (Escherichia coli [21]): > 128 mg/L; MIC (Escherichia coli [22]): 64 mg/L (≈ 173 µM) |
| COc1ccccc1N1CCN(Cc2oc(CCl)cc(=O)c2O)CC1 | 0.05 | 0.2 | 1.6 | 0.2 | 0.8 | 0.8 | 8 (≈ 21.9 µM) | 8 (≈ 21.9 µM) | 32 (≈ 87.7 µM) | 128 (≈ 351 µM) | 16 (≈ 43.9 µM) | 64 (≈ 175 µM) | 128 (≈ 351 µM) | 64 (≈ 175 µM) | 64 (≈ 175 µM) | 32 (≈ 87.7 µM) | 64 (≈ 175 µM) | 32 (≈ 87.7 µM) | 32 (≈ 87.7 µM) | 64 | MIC (Pseudomonas aeruginosa [19]): 64 mg/L; MIC (Pseudomonas aeruginosa [20]): 32 mg/L (≈ 87.7 µM); MIC (Escherichia coli [21]): 64 mg/L; MIC (Escherichia coli [22]): 32 mg/L (≈ 87.7 µM) |
| COc1ccc(N2CCN(Cc3oc(CCl)cc(=O)c3O)CC2)cc1 | 0.05 | 0.8 | 1.6 | 0.1 | 1.6 | 1.6 | 8 (≈ 21.9 µM) | 8 (≈ 21.9 µM) | 64 (≈ 175 µM) | 64 (≈ 175 µM) | 32 (≈ 87.7 µM) | 32 (≈ 87.7 µM) | 64 (≈ 175 µM) | 32 (≈ 87.7 µM) | 32 (≈ 87.7 µM) | 16 (≈ 43.9 µM) | 32 (≈ 87.7 µM) | 16 (≈ 43.9 µM) | 32 (≈ 87.7 µM) | 64 | MIC (Pseudomonas aeruginosa [19]): 64 mg/L; MIC (Pseudomonas aeruginosa [20]): 16 mg/L (≈ 43.9 µM); MIC (Escherichia coli [21]): 64 mg/L; MIC (Escherichia coli [22]): 32 mg/L (≈ 87.7 µM) |
| O=c1cc(CCl)oc(CN2CCN(c3ccc(Cl)cc3)CC2)c1O | 0.025 | 0.4 | 0.4 | 0.1 | 0.4 | 1.6 | 16 (≈ 43.3 µM) | 16 (≈ 43.3 µM) | > 128 | > 128 | 16 (≈ 43.3 µM) | 8 (≈ 21.7 µM) | > 128 | 8 (≈ 21.7 µM) | > 128 | 64 (≈ 173 µM) | > 128 | 64 (≈ 173 µM) | 64 (≈ 173 µM) | > 128 | MIC (Pseudomonas aeruginosa [19]): > 128 mg/L; MIC (Pseudomonas aeruginosa [20]): 64 mg/L (≈ 173 µM); MIC (Escherichia coli [21]): > 128 mg/L; MIC (Escherichia coli [22]): 64 mg/L (≈ 173 µM) |
| O=c1cc(CCl)oc(CN2CCN(c3ccccc3F)CC2)c1O | 0.025 | 0.2 | 0.8 | 0.05 | 0.8 | 0.8 | 8 (≈ 22.7 µM) | 8 (≈ 22.7 µM) | 16 (≈ 45.4 µM) | 32 (≈ 90.7 µM) | 8 (≈ 22.7 µM) | 16 (≈ 45.4 µM) | 64 (≈ 181 µM) | 16 (≈ 45.4 µM) | 64 (≈ 181 µM) | 32 (≈ 90.7 µM) | 64 (≈ 181 µM) | 16 (≈ 45.4 µM) | 32 (≈ 90.7 µM) | 64 | MIC (Pseudomonas aeruginosa [19]): 64 mg/L; MIC (Pseudomonas aeruginosa [20]): 32 mg/L (≈ 90.7 µM); MIC (Escherichia coli [21]): 64 mg/L; MIC (Escherichia coli [22]): 16 mg/L (≈ 45.4 µM) |
| O=c1cc(CCl)oc(CN2CCN(c3cccc(C(F)(F)F)c3)CC2)c1O | 0.025 | 0.4 | 0.8 | 0.05 | 0.8 | 0.8 | 8 (≈ 19.9 µM) | 8 (≈ 19.9 µM) | 64 (≈ 159 µM) | 32 (≈ 79.4 µM) | 32 (≈ 79.4 µM) | 16 (≈ 39.7 µM) | 64 (≈ 159 µM) | 32 (≈ 79.4 µM) | 64 (≈ 159 µM) | 32 (≈ 79.4 µM) | 64 (≈ 159 µM) | 16 (≈ 39.7 µM) | 16 (≈ 39.7 µM) | 64 | MIC (Pseudomonas aeruginosa [19]): 64 mg/L; MIC (Pseudomonas aeruginosa [20]): 16 mg/L (≈ 39.7 µM); MIC (Escherichia coli [21]): 64 mg/L; MIC (Escherichia coli [22]): 16 mg/L (≈ 39.7 µM) |
| O=c1cc(CCl)oc(CN2CCN(c3cccc(Cl)c3)CC2)c1O | 0.025 | 0.8 | 0.8 | 0.1 | 0.8 | 1.6 | 16 (≈ 43.3 µM) | 16 (≈ 43.3 µM) | 32 (≈ 86.7 µM) | 128 (≈ 347 µM) | 16 (≈ 43.3 µM) | 8 (≈ 21.7 µM) | 128 (≈ 347 µM) | 8 (≈ 21.7 µM) | 64 (≈ 173 µM) | 32 (≈ 86.7 µM) | 64 (≈ 173 µM) | 32 (≈ 86.7 µM) | 32 (≈ 86.7 µM) | 64 | MIC (Pseudomonas aeruginosa [19]): 64 mg/L; MIC (Pseudomonas aeruginosa [20]): 32 mg/L (≈ 86.7 µM); MIC (Escherichia coli [21]): 64 mg/L; MIC (Escherichia coli [22]): 32 mg/L (≈ 86.7 µM) |

From ChEMBL document CHEMBL3045118, “Synthesis and biological activities of new Mannich bases of chlorokojic acid derivatives” (Med Chem Res, 2011)
